Experimental data reported in ChEMBL document CHEMBL1201862, “PubChem BioAssay data set” (2004).
Activity calls are given as the source filed them. Cut-off read from the data, not from the text of the source, for most assays here: actives have a measured EC50 and inactives only a lower limit.

Assays:
[1] = target: T1, Heat shock factor protein 1 (Mus musculus, UniProt P38532); assay: HSF1 potentiators in luciferase reporter cells, confirmation, cell-based, NIH3T3, luminescence, dose retest (AID 435004); format: functional;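 note: stress induced by proteasome inhibitor MG132 added 30 min after compound; luciferase reporter driven by HSF1 response element in NIH3T3 cells; actives raise luminescence as potentiators of the MG132 stress response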
T1 sequence (P38532 whole entry): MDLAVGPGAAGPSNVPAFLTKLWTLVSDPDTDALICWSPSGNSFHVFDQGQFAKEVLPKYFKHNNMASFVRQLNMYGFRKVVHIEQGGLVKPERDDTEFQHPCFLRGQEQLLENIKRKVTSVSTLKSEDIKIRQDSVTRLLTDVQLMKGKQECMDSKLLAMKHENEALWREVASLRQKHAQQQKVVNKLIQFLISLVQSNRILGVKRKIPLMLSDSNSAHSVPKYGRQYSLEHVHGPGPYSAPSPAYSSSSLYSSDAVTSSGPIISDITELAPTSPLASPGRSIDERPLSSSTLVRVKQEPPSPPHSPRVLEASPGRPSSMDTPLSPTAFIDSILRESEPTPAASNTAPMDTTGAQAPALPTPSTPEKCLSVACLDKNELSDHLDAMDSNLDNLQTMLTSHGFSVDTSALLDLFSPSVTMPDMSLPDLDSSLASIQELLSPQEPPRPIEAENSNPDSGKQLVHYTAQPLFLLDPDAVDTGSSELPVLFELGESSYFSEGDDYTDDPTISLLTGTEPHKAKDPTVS

[2] = inhibitors of firefly luciferase expression or activity, dose response, H4 neuroglioma cells, luminescence (AID 1990); format: functional, cell-based
[3] = Luminescence Cell-Based Dose Response HTS to Identify Inhibitors of 5'UTR Stem-Loop Driven Prion Protein mRNA Translation in H4 Neuroglioblastoma Cells. [Related pubchem assays: 1827 (Project Summary), 1813 (Primary HTS)]; format: functional
[4] = inhibitors of SNCA 5'UTR-driven reporter translation, confirmation, H4 neuroglioma cells, luminescence (AID 1988); format: functional, cell-based
[5] = inhibitors of intracellular T. cruzi replication, confirmation, NIH3T3 host cells, beta-gal luminescence (AID 2044); format: functional, cell-based;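 note: intracellular parasites grown in NIH/3T3 mouse fibroblasts as host cells; luminescent beta-galactosidase reporter signal from transgenic T. cruzi replicating inside host cells; inhibitors lower the luminescence signal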
[6] = cytotoxicity toward NIH3T3 fibroblasts, dose response, counter-screen, cell-based, ATP luminescence, mouse fibroblasts (AID 2010); format: functional;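 note: cells exposed to compound for about 90 hours before reading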
[7] = tested on: Streptococcus sp. 'group A'; assay: growth inhibition of control SK(-) GAS strain, dose response, counter-screen for streptokinase expression inhibitor project, luminescence, kanamycin, BacTiterGlo, confirmation (AID 1900); format: functional, organism-based
[8] = target: T2, Streptokinase A (Streptococcus pyogenes serotype M1, UniProt P10520); assay: S. pyogenes streptokinase expression inhibitors, potency, dose response, plasminogen activation absorbance, OD405 (AID 1914); format: functional, Streptococcus pyogenes M1 GAS;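 note: secreted streptokinase activity via plasminogen activation per viability signal from cell pellet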
T2 sequence (P10520 whole entry): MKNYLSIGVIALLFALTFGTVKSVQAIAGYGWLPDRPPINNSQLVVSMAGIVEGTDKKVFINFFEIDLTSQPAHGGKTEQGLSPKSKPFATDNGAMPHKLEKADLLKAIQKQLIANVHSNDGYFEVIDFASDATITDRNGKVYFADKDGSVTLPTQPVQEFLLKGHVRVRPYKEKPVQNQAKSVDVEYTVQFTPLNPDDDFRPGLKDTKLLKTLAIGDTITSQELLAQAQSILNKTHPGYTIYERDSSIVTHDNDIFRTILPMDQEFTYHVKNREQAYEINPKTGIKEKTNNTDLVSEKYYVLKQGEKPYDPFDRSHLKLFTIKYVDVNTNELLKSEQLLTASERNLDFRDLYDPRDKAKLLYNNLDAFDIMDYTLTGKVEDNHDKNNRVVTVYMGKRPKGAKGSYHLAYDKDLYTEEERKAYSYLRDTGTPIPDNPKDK

[9] = tested on: Streptococcus; assay: Group A Streptococcus viability loss, dose response, counter-screen for streptokinase expression inhibitor project, luminescence, BacTiterGlo (AID 1915); format: functional, organism-based;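 note: potency for reduction of bacterial viability or growth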
[10] = tested on: INS1; assay: beta cell apoptosis inhibitors, cytokine rescue, dose response, luminescence, retest (AID 449756); format: functional, cell-based; conditions: Rattus norvegicus;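 note: cell death triggered by IL-1 beta plus TNF-alpha plus IFN-gamma mixture; protective hits raise ATP signal compared with cytokine alone wells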
[11] = Luminescence Cell-Based Dose Retest to Confirm Inhibitors of Cancer Stem Cells. [Related pubchem assays (depositor defined):AID2717, AID2721]; format: functional; conditions: Homo sapiens
[12] = target: Cytochrome P450 2D6 (Homo sapiens, UniProt P10635);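 note: CYP2D6 member of a cytochrome P450 panel assay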
[13] = target: Cytochrome P450 3A4 (Homo sapiens, UniProt P08684);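 note: CYP3A4 tested as one member of a cytochrome P450 panel screen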
[14] = target: T3, Corticotropin-releasing factor receptor 2/Corticotropin-releasing factor-binding protein (Homo sapiens, UniProt P24387+Q13324); assay: Dose Response confirmation of uHTS hits for small molecule antagonists of the CRF-binding protein and CRF-R2 receptor complex.; format: functional; conditions: read-out: IC50_Mean
T3 sequence (Q13324 whole entry): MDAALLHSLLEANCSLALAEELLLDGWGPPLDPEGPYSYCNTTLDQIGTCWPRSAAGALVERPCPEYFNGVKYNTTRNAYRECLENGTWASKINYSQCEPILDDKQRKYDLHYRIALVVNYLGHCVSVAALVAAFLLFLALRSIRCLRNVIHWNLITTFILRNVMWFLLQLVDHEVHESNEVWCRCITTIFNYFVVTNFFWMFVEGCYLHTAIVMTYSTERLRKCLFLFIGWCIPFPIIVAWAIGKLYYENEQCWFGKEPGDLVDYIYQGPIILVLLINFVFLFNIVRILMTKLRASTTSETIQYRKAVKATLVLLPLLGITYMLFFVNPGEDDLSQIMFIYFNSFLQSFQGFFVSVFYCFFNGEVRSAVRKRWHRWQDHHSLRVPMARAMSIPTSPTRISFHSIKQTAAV
T3 sequence (P24387 whole entry): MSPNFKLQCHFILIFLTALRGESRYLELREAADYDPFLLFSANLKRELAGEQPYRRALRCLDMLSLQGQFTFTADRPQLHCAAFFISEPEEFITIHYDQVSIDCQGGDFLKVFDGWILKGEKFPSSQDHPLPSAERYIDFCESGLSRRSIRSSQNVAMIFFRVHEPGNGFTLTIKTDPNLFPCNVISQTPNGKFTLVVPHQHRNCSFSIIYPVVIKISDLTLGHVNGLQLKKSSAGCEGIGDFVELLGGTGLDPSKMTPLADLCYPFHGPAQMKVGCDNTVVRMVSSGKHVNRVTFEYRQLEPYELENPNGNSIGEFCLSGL

[15] = target: T3, Corticotropin-releasing factor receptor 2/Corticotropin-releasing factor-binding protein; assay: activators of CRF receptor 2 with binding protein – uHTS hits, confirmation (AID 602473); format: functional; conditions: read-out: EC50_Mean
[16] = NIH-3T3 fibroblast cytotoxicity, dose response, cytotoxicity control, cell-based, fluorescence, Alamar Blue, secondary assay (AID 2327); format: functional;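 note: NIH-3T3 mouse fibroblasts cultured with fluconazole at 8 µg/mL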
[17] = C. albicans growth with fluconazole, confirmation, fluorescence, retest (AID 2467); format: functional, cell-based
[18] = target: Luciferin 4-monooxygenase (Photinus pyralis, UniProt P08659); assay: firefly luciferase enzyme inhibitors, dose response, biochemical, luminescence (AID 1891)
[19] = Luminescence Cell-Based Dose Confirmation HTS to Identify Inhibitors of Platelet Dense Granule Release. [Related pubchem assays: 1663 (Primary HTS), 1678 (Summary of Project)]; format: functional
[20] = target: T4, Cytochrome P450 1A2 (Homo sapiens, UniProt P05177);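 note: PubChem cytochrome P450 panel assay, CYP1A2 panel member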
T4 sequence (P05177 whole entry): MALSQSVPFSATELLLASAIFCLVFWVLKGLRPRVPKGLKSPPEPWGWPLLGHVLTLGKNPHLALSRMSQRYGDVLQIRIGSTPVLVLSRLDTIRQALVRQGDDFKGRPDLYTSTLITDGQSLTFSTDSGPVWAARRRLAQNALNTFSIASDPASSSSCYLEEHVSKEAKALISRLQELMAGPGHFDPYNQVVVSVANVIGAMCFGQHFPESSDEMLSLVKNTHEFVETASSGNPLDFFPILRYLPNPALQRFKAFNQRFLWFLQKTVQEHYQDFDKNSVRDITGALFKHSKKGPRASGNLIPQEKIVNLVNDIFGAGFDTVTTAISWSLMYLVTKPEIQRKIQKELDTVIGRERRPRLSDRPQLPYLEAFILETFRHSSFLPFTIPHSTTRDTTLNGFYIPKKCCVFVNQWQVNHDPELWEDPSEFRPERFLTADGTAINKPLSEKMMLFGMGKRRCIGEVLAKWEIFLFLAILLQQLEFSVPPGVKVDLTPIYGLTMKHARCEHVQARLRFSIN

[21] = tested on: H9c2; assay: cells; format: functional, cell-based; conditions: Rattus norvegicus, H9c2, Myocardium;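 note: confirmatory concentration-response retest of ultra-high-throughput screening hits for modulation of myocardial damage; cell death induced by hydrogen peroxide oxidative stress; compound pretreatment for 60 min then peroxide exposure for 2 h; potency is for protecting the cells against peroxide damage rather than for killing them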
[22] = Shn3 3'UTR reporter inhibitors, dose response, cell-based, Clone20 osteoblasts, firefly luciferase, cherry-picked (AID 624132); format: functional;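 note: firefly luciferase luminescence from reporter carrying the Shn3 3'UTR in osteoblasts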

Luciferin 4-monooxygenase, sequence (P08659 whole entry): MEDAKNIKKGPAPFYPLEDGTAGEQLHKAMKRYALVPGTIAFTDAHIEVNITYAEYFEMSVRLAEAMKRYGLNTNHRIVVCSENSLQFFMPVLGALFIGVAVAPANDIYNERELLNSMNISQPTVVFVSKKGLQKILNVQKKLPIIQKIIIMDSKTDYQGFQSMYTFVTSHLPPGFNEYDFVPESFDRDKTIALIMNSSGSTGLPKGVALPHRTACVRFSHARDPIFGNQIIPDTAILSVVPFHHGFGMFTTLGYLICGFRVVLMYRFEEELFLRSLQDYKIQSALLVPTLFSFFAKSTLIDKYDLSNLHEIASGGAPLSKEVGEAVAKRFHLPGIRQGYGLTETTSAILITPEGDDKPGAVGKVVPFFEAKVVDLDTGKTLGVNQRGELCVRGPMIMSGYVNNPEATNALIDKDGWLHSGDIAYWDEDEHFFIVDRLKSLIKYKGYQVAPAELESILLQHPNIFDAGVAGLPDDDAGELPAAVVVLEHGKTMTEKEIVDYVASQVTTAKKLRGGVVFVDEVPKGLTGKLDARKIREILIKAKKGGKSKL
Cytochrome P450 2D6, sequence (P10635 whole entry): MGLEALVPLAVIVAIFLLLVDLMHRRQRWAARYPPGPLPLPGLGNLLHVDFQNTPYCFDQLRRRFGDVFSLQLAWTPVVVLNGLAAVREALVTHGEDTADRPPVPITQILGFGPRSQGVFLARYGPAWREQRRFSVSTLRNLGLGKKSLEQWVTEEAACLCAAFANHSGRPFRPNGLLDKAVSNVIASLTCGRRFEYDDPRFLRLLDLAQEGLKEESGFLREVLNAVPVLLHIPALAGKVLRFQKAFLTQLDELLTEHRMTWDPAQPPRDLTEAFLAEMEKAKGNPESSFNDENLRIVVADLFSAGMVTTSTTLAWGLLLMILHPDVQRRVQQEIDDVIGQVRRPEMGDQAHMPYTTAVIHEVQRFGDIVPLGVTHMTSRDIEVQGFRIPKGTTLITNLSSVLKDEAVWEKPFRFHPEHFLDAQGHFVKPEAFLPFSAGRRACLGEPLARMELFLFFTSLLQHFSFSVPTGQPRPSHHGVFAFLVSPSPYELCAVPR
Cytochrome P450 3A4, sequence (P08684 whole entry): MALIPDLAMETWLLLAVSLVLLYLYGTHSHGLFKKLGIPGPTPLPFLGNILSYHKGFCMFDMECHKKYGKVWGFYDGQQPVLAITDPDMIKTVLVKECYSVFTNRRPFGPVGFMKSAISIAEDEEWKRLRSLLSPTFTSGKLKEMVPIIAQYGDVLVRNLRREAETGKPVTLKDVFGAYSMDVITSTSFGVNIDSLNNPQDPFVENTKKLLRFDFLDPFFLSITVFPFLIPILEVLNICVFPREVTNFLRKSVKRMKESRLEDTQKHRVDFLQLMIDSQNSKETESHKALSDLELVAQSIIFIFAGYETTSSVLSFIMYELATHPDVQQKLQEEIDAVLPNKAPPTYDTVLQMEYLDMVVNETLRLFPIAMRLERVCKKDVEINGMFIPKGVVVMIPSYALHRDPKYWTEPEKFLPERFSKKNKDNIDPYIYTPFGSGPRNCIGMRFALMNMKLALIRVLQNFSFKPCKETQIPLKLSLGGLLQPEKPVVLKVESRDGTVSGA

COC(=O)N1C(=O)[C@@](c2ccccc2)(C2CCCC2)N1C(=O)OC
EC50 [1]: 14.9 µM (active)

Cc1ccc(-n2c(SCC(=O)Nc3cc(S(=O)(=O)N4CCOCC4)ccc3Cl)nc3ccccc3c2=O)cc1
EC50 [1]: > 260 µM (inactive)

Cc1ccc(-n2nc3c(N4CCC(C(=O)NCCc5ccccc5C)CC4)nnc(C)c3c2C)cc1
EC50 [2]: 9.7 µM (active) | EC50 [3]: 39.8 µM (active) | EC50 [4]: > 120 µM (not active) | EC50 [5]: 941 nM (active) | EC50 [6]: 6.26 µM (active)

CCCCNc1c(-c2ccc(SC3CCCCC3)cc2)nc2ccccn12
EC50 [7]: 8.18 µM (active) | EC50 [8]: > 150 µM (not active) | EC50 [5]: 1200 nM (active) | EC50 [6]: > 30 µM (not active) | EC50 [9]: 8.23 µM (active) | AC50 [10]: 5.33 µM (active)

CC(=O)NCCC(=O)Nc1nc(-c2cccs2)c(-c2cccs2)s1
EC50 [1]: > 260 µM (inactive)

O=C(Nc1cccc(-c2csc(Nc3cccc(C(F)(F)F)c3)n2)c1)c1ccccc1
EC50 [7]: 4.47 µM (active) | EC50 [8]: > 150 µM (not active) | EC50 [9]: 6.3 µM (active) | AC50 [11]: 1.6 µM (active)

Oc1cccc(-c2nc3c4c(ncn3n2)-c2ccccc2CC42CCCC2)c1
AC50 [11]: 1.16 µM (active) | AC50 [12]: 631 nM (inconclusive) | AC50 [13]: 22.4 µM (inconclusive)

COC(=O)/C(=C\Nc1ccccc1N)c1ncc(C(F)(F)F)cc1Cl
EC50 [1]: > 260 µM (inactive)

CCCCN=C(S)N(Cc1ccco1)Cc1cc2cc3c(cc2nc1O)OCCO3
EC50 [1]: > 260 µM (inactive)

Cc1cc(-c2csc3ncnc(S)c23)cc(C)c1C
EC50 [7]: 1.31 µM (active) | EC50 [9]: 4.06 µM (active) | AC50 [11]: 12.8 µM (active)

CCOC(=O)C1CCCN(C(=O)c2ccc(Cl)c(S(=O)(=O)N3CCCCC3)c2)C1 (configuration not stated)
EC50 [1]: > 260 µM (inactive) | IC50 [14]: > 47.1 µM (inactive) | EC50 [15]: > 53 µM (inactive)

CCCOc1cccc(C(=O)N/N=C/c2coc3ccccc3c2=O)c1
EC50 [16]: 28.2 µM (active) | EC50 [17]: > 38 µM (not active)

Cc1ccc(NC(=O)c2cc3c(=O)oc4ccccc4c3s2)nc1
EC50 [1]: > 260 µM (inactive)

COc1nc(N2CCCCCC2)nc(N2CCCCCC2)n1
AC50 [11]: 6.21 µM (active)

CCOC(=O)C1=C(C)N=c2s/c(=C\C(=O)OC)c(=O)n2C1c1ccc(OC)cc1 (configuration not stated)
EC50 [1]: 10.1 µM (active)

O=[N+]([O-])CC(c1ccccc1)c1c(O)n[nH]c1-c1ccccc1O (configuration not stated)
EC50 [1]: 131 µM (active)

CCc1cc(CNC(=O)c2ccc3nc(Cc4ccc(OC)c(OC)c4)oc3c2)on1
AC50 [10]: 3.62 µM (active)

COc1ccc(/C=N/NC(=O)C2C3CCCCC32)cc1OC (configuration not stated)
EC50 [2]: > 120 µM (not active) | EC50 [3]: > 120 µM (not active) | EC50 [4]: 67.5 µM (active)

CN(C)c1nc(NC(C)(C)C)nc(SCC(=O)Nc2ccccc2)n1
EC50 [1]: > 260 µM (inactive)

Cc1cc(OCc2cc(C(=O)N3CCC(Oc4cccnc4)CC3)no2)cc(C)c1Cl
AC50 [11]: 7.55 µM (active)

CC(C)(C)c1ccc(Oc2ccc(NC(=O)c3cccs3)cn2)cc1
AC50 [11]: 3.9 µM (active)

CC1CCN(Cc2c(C(=O)N/N=C/c3ccc(C(C)(C)C)cc3)nnn2-c2nonc2N)CC1
EC50 [2]: 9.56 µM (active) | EC50 [3]: 14.1 µM (active) | EC50 [4]: > 120 µM (not active)

O=C1c2c(Br)c(Br)c(Br)c(Br)c2C(=O)N1c1ccccn1
AC50 [11]: 1.95 µM (active)

Cc1nc(O)nc(O)c1/C=C/C(=O)OCC(C)C
EC50 [2]: 22.7 µM (active) | EC50 [3]: > 120 µM (not active) | EC50 [4]: 15.5 µM (active)

COC1=C(Nc2ccccc2OC)C(=O)c2ccccc2C1=O
AC50 [10]: 38.3 µM (active)

COc1ccccc1-c1c(C(F)(F)F)oc2cc(OCC(=O)Nc3cc(C)ccc3C)ccc2c1=O
EC50 [2]: > 120 µM (not active) | EC50 [3]: > 120 µM (not active) | EC50 [4]: > 120 µM (not active)

Cc1onc(-c2ccccc2)c1C(=O)N/N=C/c1cccc(O)c1
EC50 [1]: > 260 µM (inactive)

COCCN1CN=C(Nc2nc3ccccc3o2)NC1
EC50 [18]: > 112 µM (not active) | EC50 [19]: > 112 µM (not active) | AC50 [20]: 22.4 µM (inconclusive)

CCN(CC(=O)Nc1ccc(NC(C)=O)cc1)Cc1c(O)ccc2cc(Br)ccc12
EC50 [1]: 8.46 µM (active)

CCOc1ccc(C2C3=C(O)CCCC3=Nc3ccc4ncccc4c32)cc1 (configuration not stated)
EC50 [1]: 14.1 µM (active)

CC/C(C)=N\N=C\c1c(O)n(CC)c2cc(C3=NNC(=O)CC3)ccc12
EC50 [18]: > 112 µM (not active) | EC50 [19]: 6.14 µM (active) | IC50 [21]: 11.9 µM (active)

CCS(=O)(=O)c1ccc2oc(SCC(=O)N3CCCCC3)nc2c1
AC50 [22]: > 70 µM (inactive)

O=C1CC(c2cccc(Cl)c2)c2cc3c(cc2N1)CCC3 (configuration not stated)
EC50 [2]: > 120 µM (not active) | EC50 [3]: 11.9 µM (active) | EC50 [4]: 6.74 µM (active)

Cn1nnc2c[n+](CC(=O)c3ccc4ccccc4c3)cc(Br)c21
EC50 [1]: 12.2 µM (active)
